This note sets out measurements from ChEMBL document CHEMBL4483862, “Open-source discovery of chemical leads for next-generation chemoprotective antimalarials” (2018).

One may read the IC50 as the concentration at which inhibition is half-maximal. The term IC90 denotes the concentration at which the effect reaches the 90% level.

Each structure is given as a SMILES string.

For this assay, the system named is Plasmodium berghei. In words: Luciferase/luciferin-expressing antifolate-resistant parasites were used to infect a culture of HepG2 cells that were pre-incubated with compounds. Infected hepatocytes emit light due to the luciferase reaction. Assay results are presented as the percent inhibition of light emission compared to control. […]. Type of assay: functional. As to conditions: sporozoite; for IC90: read-out: LUCIFERASE INFECTION ASSAY - IC90.

The mark [1] stands for this setting: read-out: LUCIFERASE INFECTION ASSAY - IC50.

For the molecule `O=C(NC1CC1)c1ccc(CN(Cc2csc(-c3ccsc3)n2)Cc2ccco2)cc1`, the IC90 turned out to be 1.57 µM. Further, the IC50 (PBLUC_HILL_SLOPE 18.2, PBLUC_R_SQUARED 0.577, read-out: LUCIFERASE INFECTION ASSAY - IC50) is 1.39 µM.
With `O=C(CCN1CCOCC1)Nc1cc(C(F)(F)F)ccc1Cl`, the IC90 is above 9.8 µM. For the same molecule, the IC50 under setting [1] was above 9.8 µM.
As to `OCc1ccc(-c2cnc3cnc(-c4ccco4)cn23)cc1`, the IC90 is above 11.3 µM. The IC50 under setting [1] is above 11.3 µM.
Regarding `Nc1cccc(-c2ccc3ncc(-c4cccc(C(F)(F)F)c4)n3n2)c1`, the IC90 was determined as 2.09 µM. The IC50 under setting [1] came out at 1.48 µM.
As for `Cc1[nH]c2ccccc2c1/C=N/N(Cc1ccccc1)c1ccccc1`, the IC90 is above 10 µM. For the same molecule, under setting [1], the IC50 was above 10 µM.
On to `O=C(Nc1ccc([N+](=O)[O-])cc1Br)C(Nc1ccc2c(c1)OCCO2)c1ccccc1` (stereo unspecified), for which the IC90 was above 10 µM. The IC50 (PBLUC_HILL_SLOPE 1.35, PBLUC_R_SQUARED 0.497, read-out: LUCIFERASE INFECTION ASSAY - IC50) came to 2.53 µM.
Consider `O=C(c1cc2c(s1)CCC2)N1C=CN(c2ccc(C(F)(F)F)cn2)C1c1nccn1-c1ccc(C(F)(F)F)cn1` (stereo unspecified), for which the IC90 was above 10 µM. For the same molecule, the half-inhibitory concentration (IC50) (FFLUC_HILL_SLOPE 2.58, FFLUC_R_SQUARED 0.668, PBLUC_HILL_SLOPE 14.8, PBLUC_R_SQUARED 0.174, read-out: LUCIFERASE INFECTION ASSAY - IC50) was determined as 9.12 µM.
With `OC(c1ccc(F)c(Cl)c1)c1nnc(Nc2cccc(OC(F)(F)F)c2)s1` (stereo unspecified), the IC90 is above 10 µM. Also, the IC50 (PBLUC_HILL_SLOPE 2.34, PBLUC_R_SQUARED 0.225, read-out: LUCIFERASE INFECTION ASSAY - IC50) came to 9.05 µM.
With `Cc1oc2cc(OC(C)C(=O)Nc3cccc([N+](=O)[O-])c3)ccc2c(=O)c1-c1ccccc1` (stereo unspecified), the IC90 was above 10 µM. Moreover, the 50% inhibitory concentration (IC50) under setting [1] came out at 8.01 µM.
On to `CCn1c(=O)n(CCC(=O)N(CC2CCCO2)c2nc3ccccc3s2)c2ccccc21` (stereo unspecified), for which the IC90 is above 10 µM. The IC50 under setting [1] was above 10 µM.
Regarding `Cc1ccc(C)c(-n2nnnc2SCC(=O)NC(=O)NC23CC4CC(CC(C4)C2)C3)c1`, the IC90 was 9.88 µM. Further, under “PBLUC_HILL_SLOPE 3.63, PBLUC_R_SQUARED 0.524, read-out: LUCIFERASE INFECTION ASSAY - IC50”, the IC50 came out at 5.39 µM.
Consider `Cn1cnnc1SCC(=O)NC(Cc1c[nH]c2ccccc12)C(=O)O` (stereo unspecified), for which the IC90 is above 10 µM. The IC50 under setting [1] was above 10 µM.
As for `N#Cc1ccc(OC(=O)c2c(Cl)cccc2Cl)cc1`, the IC90 was above 11.3 µM. Besides, for the setting “HEPG2TOX_HILL_SLOPE 15.2, HEPG2TOX_R_SQUARED 0.237, read-out: LUCIFERASE INFECTION ASSAY - IC50”, the IC50 is above 11.3 µM.
Take `CCn1c2ccccc2c2cc(Nc3cc(-c4cc(OC)c(OC)c(OC)c4)ncn3)ccc21`: the IC90 is 1.29 µM. Moreover, for the setting “HEPG2TOX_HILL_SLOPE 1.37, HEPG2TOX_R_SQUARED 0.859, PBLUC_HILL_SLOPE 1.98, PBLUC_R_SQUARED 0.713, read-out: LUCIFERASE INFECTION ASSAY - IC50”, the IC50 was determined as 0.426 µM.
Turning to `COc1ccccc1-c1nc2c3c(C)c(C)n(-c4ccccc4OC)c3ncn2n1`, the IC90 stood at 7.51 µM. The IC50 (HEPG2TOX_HILL_SLOPE 8.61, HEPG2TOX_R_SQUARED 0.202, PBLUC_HILL_SLOPE 3.56, PBLUC_R_SQUARED 0.654, read-out: LUCIFERASE INFECTION ASSAY - IC50) is 4.05 µM.
`FC(F)(F)Oc1cccc(-c2nnc3ccc(-c4cccc5ncccc45)cn23)c1`: the IC90 came out at 2.55 µM. For the same molecule, the IC50 (HEPG2TOX_HILL_SLOPE 0.706, HEPG2TOX_R_SQUARED 0.938, PBLUC_HILL_SLOPE 2.17, PBLUC_R_SQUARED 0.421, read-out: LUCIFERASE INFECTION ASSAY - IC50) came out at 0.928 µM.
`CC(=O)Nc1cccc(-c2cn3c(-c4ccc(Oc5ccccc5)cc4)cnc3cn2)c1`: the IC90 was above 7.85 µM. For the same molecule, the IC50 (HEPG2TOX_HILL_SLOPE 0.0216, HEPG2TOX_R_SQUARED 0.0103, PBLUC_HILL_SLOPE 2.46, PBLUC_R_SQUARED 0.352, read-out: LUCIFERASE INFECTION ASSAY - IC50) is above 7.85 µM.
`N#Cc1c(Cl)cccc1N1CCOCC1`: the IC90 was above 14.8 µM. For the same molecule, the IC50 (FFLUC_HILL_SLOPE 1.9, FFLUC_R_SQUARED 0.649, HEPG2TOX_HILL_SLOPE 2.33, HEPG2TOX_R_SQUARED 0.905, PBLUC_HILL_SLOPE 3.58, PBLUC_R_SQUARED 0.165, read-out: LUCIFERASE INFECTION ASSAY - IC50) was determined as 14.1 µM.
`Cc1cc(C)nc(-n2[nH]c3[nH]c(-c4cccc5ccccc45)cc(=O)c3c2=O)n1`: the IC90 worked out at 1.99 µM. In addition, the IC50 (HEPG2TOX_HILL_SLOPE 0.872, HEPG2TOX_R_SQUARED 0.686, PBLUC_HILL_SLOPE 1.74, PBLUC_R_SQUARED 0.695, read-out: LUCIFERASE INFECTION ASSAY - IC50) was determined as 0.566 µM.
As for `COc1ccc(-c2nc(NC(=O)c3ccc4nc[nH]c4c3)sc2C)cc1`, the IC90 was above 10 µM. Moreover, the IC50 under setting [1] is above 10 µM.
For the molecule `CCCc1ccc(C(NC(=O)Cn2ccc(=O)[nH]c2=O)c2cccs2)cc1` (stereo unspecified), the IC90 is above 10 µM. Moreover, the concentration for half-maximal inhibition (IC50) under setting [1] is above 10 µM.
As to `COc1cc(C)c(C(c2ccc(N(C)C)cc2)c2ccc(N(C)C)cc2)cc1C`, the IC90 is 6.45 µM. Also, under “HEPG2TOX_HILL_SLOPE 7.41, HEPG2TOX_R_SQUARED 0.305, PBLUC_HILL_SLOPE 5.23, PBLUC_R_SQUARED 0.705, read-out: LUCIFERASE INFECTION ASSAY - IC50”, the IC50 came out at 4.24 µM.
For the molecule `Clc1cccc(-c2[nH]nc3nccc(-c4ccc(N5CCNCC5)cc4)c23)c1`, the IC90 was found to be 4.08 µM. Further, the IC50 (FFLUC_HILL_SLOPE 19.9, FFLUC_R_SQUARED 0.198, HEPG2TOX_HILL_SLOPE 3.67, HEPG2TOX_R_SQUARED 0.922, PBLUC_HILL_SLOPE 10.3, PBLUC_R_SQUARED 0.464, read-out: LUCIFERASE INFECTION ASSAY - IC50) was determined as 3.3 µM.
`Cn1c(NCCOc2cccc3c2OC(C)(C)C3)c(C#N)c(=O)n(C)c1=O`: the IC90 was above 10 µM. Further, under setting [1], the IC50 is above 10 µM.
With `CS(=O)(=O)Nc1ccc(C(=N)NOC(=O)Nc2ccc(C(F)(F)F)cc2)cc1`, the IC90 is above 7.93 µM. Moreover, under setting [1], the IC50 was above 7.93 µM.
Turning to `O=C(NCCO)c1cccc(-c2ccc3ncc(-c4cccnc4)n3n2)c1`, the IC90 amounted to 3.93 µM. For the same molecule, the IC50 (HEPG2TOX_HILL_SLOPE 1.56, HEPG2TOX_R_SQUARED 0.733, PBLUC_HILL_SLOPE 4.25, PBLUC_R_SQUARED 0.42, read-out: LUCIFERASE INFECTION ASSAY - IC50) came to 2.34 µM.
Consider `COc1cc(-c2cnc3cnc(-c4cnn(C)c4)cn23)ccc1O`, for which the IC90 worked out at 3.64 µM. The IC50 (HEPG2TOX_HILL_SLOPE 7.18, HEPG2TOX_R_SQUARED 0.736, PBLUC_HILL_SLOPE 4.69, PBLUC_R_SQUARED 0.709, read-out: LUCIFERASE INFECTION ASSAY - IC50) was found to be 2.28 µM.
Turning to `N#CC(C#N)=NNc1cc(Cl)cc(Cl)c1`, the IC90 was 0.565 µM. Further, the IC50 (HEPG2TOX_HILL_SLOPE 2.85, HEPG2TOX_R_SQUARED 0.913, PBLUC_HILL_SLOPE 19.7, PBLUC_R_SQUARED 0.581, read-out: LUCIFERASE INFECTION ASSAY - IC50) was determined as 0.505 µM.
For `CNc1nc2cnc(Nc3ccc(C(C)C)cc3)cc2n1Cc1ccc(OC)c(OC)c1`, the IC90 was above 10 µM. Moreover, the IC50 (PBLUC_HILL_SLOPE 2.59, PBLUC_R_SQUARED 0.223, read-out: LUCIFERASE INFECTION ASSAY - IC50) was determined as 6.81 µM.
On to `Cc1cc(N2CCN(C)CC2)ccc1NC(=O)c1cnc2c(c1)c(=O)n(C)c(=O)n2C`, for which the IC90 is above 10 µM. Besides, the IC50 under setting [1] is above 10 µM.
Turning to `CC(C)Nc1nc(-c2ccccc2CO)c2sc(-c3ccccc3)cc2n1`, the IC90 is 0.949 µM. For the same molecule, the IC50 (HEPG2TOX_HILL_SLOPE 1.93, HEPG2TOX_R_SQUARED 0.921, PBLUC_HILL_SLOPE 16.9, PBLUC_R_SQUARED 0.634, read-out: LUCIFERASE INFECTION ASSAY - IC50) was determined as 0.833 µM.
Turning to `S=C(NCc1ccccc1Cl)NC12CC3CC(CC(C3)C1)C2`, the IC90 was above 9.85 µM. The IC50 (HEPG2TOX_HILL_SLOPE 5.09, HEPG2TOX_R_SQUARED 0.92, PBLUC_HILL_SLOPE 1.78, PBLUC_R_SQUARED 0.451, read-out: LUCIFERASE INFECTION ASSAY - IC50) worked out at 7.44 µM.
For the molecule `Cn1c(Cn2nnc(-c3cccc(F)c3)n2)nc2ccccc2c1=O`, the IC90 is above 10 µM. In addition, the IC50 under setting [1] is above 10 µM.
Regarding `C=CCN(C(=O)/C(=C/c1ccccc1)n1nnnc1C)c1nc(-c2ccccc2)cs1`, the IC90 was 5.71 µM. Also, where the note is “HEPG2TOX_HILL_SLOPE 12.1, HEPG2TOX_R_SQUARED 0.931, PBLUC_HILL_SLOPE 6.74, 7.08, PBLUC_R_SQUARED 0.881, 0.796, read-out: LUCIFERASE INFECTION ASSAY - IC50”, the IC50 is 4.16 µM.
`COc1cc(Nc2ncnc3ccsc23)cc(OC)c1`: the IC90 is 2.61 µM. Further, under setting [1], the IC50 is 0.968 µM.
Turning to `CC(C)NC(=O)N1CCc2nc(NCc3cccc(Oc4ccccc4)c3)ncc2C1`, the IC90 is 3.31 µM. Under “HEPG2TOX_HILL_SLOPE 2.9, HEPG2TOX_R_SQUARED 0.984, PBLUC_HILL_SLOPE 15.1, PBLUC_R_SQUARED 0.233, read-out: LUCIFERASE INFECTION ASSAY - IC50”, the IC50 came out at 2.86 µM.
With `Cc1ccc(C)c(OCCCN2C(=O)NC(Cc3c[nH]c4ccccc34)C2=O)c1` (stereo unspecified), the IC90 is above 10 µM. Besides, the half-inhibitory concentration (IC50) under setting [1] was above 10 µM.
In the case of `CCN1C/C(=C/c2ccccc2OC(F)F)C(=O)/C(=C/c2ccccc2OC(F)F)C1`, the IC90 was above 10 µM. Besides, under “HEPG2TOX_HILL_SLOPE 12.5, HEPG2TOX_R_SQUARED 0.688, PBLUC_HILL_SLOPE 10.4, PBLUC_R_SQUARED 0.447, read-out: LUCIFERASE INFECTION ASSAY - IC50”, the IC50 was determined as 9.35 µM.
